Tests used:
[1] = molecular target: Transitional endoplasmic reticulum ATPase (Homo sapiens, UniProt P55072); assay: biochemical; type: cell-based
Description: Inhibition of human full length VCP (2 to 806 residues) expressed in High5 insect cells assessed as reduction in ATPase activity by measuring ADP formation by NADH coupled assay

[2] = Inhibition of cell proliferation of human HCT116 cells after 72 hrs by thermostable firefly luciferase based assay; type: functional, HCT-116; conditions: Homo sapiens, HCT-116, 72 h; read-out: IC50

Chain of Transitional endoplasmic reticulum ATPase (P55072 whole entry): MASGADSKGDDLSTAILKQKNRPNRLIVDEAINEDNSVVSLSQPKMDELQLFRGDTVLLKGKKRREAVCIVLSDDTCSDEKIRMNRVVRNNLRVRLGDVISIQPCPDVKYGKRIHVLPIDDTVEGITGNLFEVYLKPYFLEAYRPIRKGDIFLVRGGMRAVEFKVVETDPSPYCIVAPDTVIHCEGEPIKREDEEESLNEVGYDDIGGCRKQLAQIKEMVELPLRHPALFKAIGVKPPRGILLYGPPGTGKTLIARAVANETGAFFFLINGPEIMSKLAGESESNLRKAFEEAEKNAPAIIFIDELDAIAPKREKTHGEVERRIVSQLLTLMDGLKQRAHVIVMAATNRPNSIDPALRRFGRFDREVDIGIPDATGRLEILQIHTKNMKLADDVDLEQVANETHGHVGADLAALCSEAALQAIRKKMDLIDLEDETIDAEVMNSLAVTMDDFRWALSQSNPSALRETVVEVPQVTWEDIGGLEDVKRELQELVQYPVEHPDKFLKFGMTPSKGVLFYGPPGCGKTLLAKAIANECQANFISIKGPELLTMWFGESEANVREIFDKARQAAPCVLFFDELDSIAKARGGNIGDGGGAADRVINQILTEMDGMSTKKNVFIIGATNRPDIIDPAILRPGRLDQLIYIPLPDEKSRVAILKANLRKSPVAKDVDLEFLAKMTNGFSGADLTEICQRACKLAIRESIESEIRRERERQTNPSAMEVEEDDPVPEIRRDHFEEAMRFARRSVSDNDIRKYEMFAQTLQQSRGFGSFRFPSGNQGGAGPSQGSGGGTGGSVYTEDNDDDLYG

| IC50 [1] [nM] | Compound | IC50 [2] [nM] |
| --- | --- | --- |
| 222 | NC(=O)[C@H]1CC[C@H](CNc2nc(NCc3ccccc3)cc(-c3ccc(C(F)(F)F)cc3)n2)CC1 | 7610 |
| 246 | CCOc1ccc(-c2cc(NCc3ccccc3)nc(NC[C@H]3CC[C@H](C(N)=O)CC3)n2)cc1 | 2230 |
| 986 | NNC(=O)[C@H]1CC[C@H](CNc2nc(NCc3ccccc3)cc(-c3ccccc3)n2)CC1 | > 20000 |
| 71 | NC(=O)[C@H]1CC[C@H](CNc2nc(NCc3ccccc3)cc(-c3ccc4[nH]ncc4c3)n2)CC1 | 5720 |
| 452 | NC(=O)[C@H]1CC[C@H](CNc2nc(NCc3ccccc3)cc(-c3ccsc3)n2)CC1 | 7410 |
| 237 | NC(=O)[C@H]1CC[C@H](CNc2nc(NCc3ccccc3)cc(-c3cccc(C(F)(F)F)c3)n2)CC1 | 7970 |
| 106 | NC(=O)[C@H]1CC[C@H](CNc2nc(NCc3ccccc3)cc(-c3ccc(Cl)cc3)n2)CC1 | 7320 |

From ChEMBL document CHEMBL3352358, “Discovery of 2-(cyclohexylmethylamino)pyrimidines as a new class of reversible valosine containing protein inhibitors” (J Med Chem, 2014)
